Data published in patent publication US9567347B2, “Use of small molecule inhibitors targeting the interaction between RAC GTPase and p67(phox)” (CHILDREN'S HOSPITAL MEDICAL CENTER, priority 2012, dated 2017).
Entries after “also recorded” stand apart in the source; their conditions may differ.

Experiments:
[1] = tested on: glucose oxidase-produced ROS; test: luminol chemiluminescence assay of glucose oxidase-generated ROS; type: cell-based, human
Description: Human neutrophils (2×10^5) were stimulated in HBSS supplemented with 0.1% BSA, 1 mM Ca2+, 1 mM Mg2+ and with fMLP (10 μM), PMA (300 nM) or glucose oxidase (200 mU/ml) for 30 min in the presence of 10 μM [8-amino-5-chloro-7-phenylpyrido[3,4-d]pyridazine-1,4(2H,3H)dione] (L012).
Chemiluminescence was measured using GloMax®-96 Microplate Luminometer (Promega) (Tarpey et al., (2004) Am J Physiol Regul Integr Comp Physiol 286: R431-R444, hereby incorporated by reference in its entirety). The generation of […] by the xanthine/xanthine oxidase was performed in PBS supplemented with xanthine oxidase (0.004 U), HRP (0.005 U·mL^−1) and L012, following the protocol described in Wind et al., (2010) Br J Pharmacol. 161, 885-898, hereby incorporated by reference in its entirety. The reaction was started by the addition of xanthine (0.5 mM).

[2] = target: T1, p67^phox binding to Rac1V12 (Homo sapiens, UniProt P19878); test: competition binding of p67phox with Rac1V12 by microscale thermophoresis; conditions: 5 μM, 15 min prior to titration of Rac1V12
T1 construct: using the pET30-HIS p67(1-212) plasmid; His; made in house; host or cells: E. coli BL21(DE3) for p67phox
T1 sequence (P19878 1-212): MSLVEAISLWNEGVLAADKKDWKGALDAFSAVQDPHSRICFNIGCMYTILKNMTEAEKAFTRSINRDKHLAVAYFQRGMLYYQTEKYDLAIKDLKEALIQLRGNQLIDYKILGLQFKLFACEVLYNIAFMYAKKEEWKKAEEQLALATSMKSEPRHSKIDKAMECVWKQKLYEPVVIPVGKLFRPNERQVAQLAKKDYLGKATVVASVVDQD
Description: Proteins were labeled for microscale thermophoresis using the Monolith NT Protein Labeling Kit Red (Nano Temper Technologies) as recommended by the manufacturer. Binding reactions were carried out using the Monolith NT. 115 (Nano Temper Technologies). Binding data was analyzed using Graphpad Prizm to estimate Kd values. The arbitrary fluorescence value from the thermophoresis plots for the smallest compound titration was subtracted from every other data point (Delta depletion) prior to normalization to a Vmax of 100. In thermophoresis plots where there was no binding, a curve could not be fit and therefore no Vmax could be assigned. In these instances the highest delta depletion value was set to 100 and all data were normalized accordingly.
Next, to perform a competition binding, p67^phox protein was first incubated with either 5 μM Phox-I1 or an equal volume of vehicle control for 15 min prior to titration of purified Rac1V12 protein. […] Thus, Phox-I1 binding to p67^phox is specific and not due to nonspecific effects, such as aggregation.

reconstituted NOX2 = target: T2, reconstituted NOX2 (Homo sapiens, UniProt P19878); test: cell-free superoxide production assay; type: biochemical; conditions: reconstitution conditions, FIG. 7
T2 sequence (P19878 1-526): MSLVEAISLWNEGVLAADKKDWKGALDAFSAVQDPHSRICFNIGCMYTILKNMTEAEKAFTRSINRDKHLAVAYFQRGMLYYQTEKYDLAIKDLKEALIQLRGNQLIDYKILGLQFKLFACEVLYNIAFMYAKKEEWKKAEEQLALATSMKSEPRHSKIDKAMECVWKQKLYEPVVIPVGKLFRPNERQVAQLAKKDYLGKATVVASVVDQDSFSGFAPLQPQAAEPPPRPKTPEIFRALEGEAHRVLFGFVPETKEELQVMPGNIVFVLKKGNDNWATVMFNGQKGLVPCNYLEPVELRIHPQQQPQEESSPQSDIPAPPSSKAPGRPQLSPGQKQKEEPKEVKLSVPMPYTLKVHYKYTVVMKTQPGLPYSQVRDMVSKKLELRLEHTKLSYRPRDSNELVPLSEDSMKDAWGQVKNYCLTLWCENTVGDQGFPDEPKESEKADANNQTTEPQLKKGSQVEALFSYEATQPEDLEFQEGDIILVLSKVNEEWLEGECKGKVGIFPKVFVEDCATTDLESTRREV
Description: In order to complement the in silico and cellular results, Phox-I1 and Phox-I2 were tested in cell-free superoxide production assays. Phox-I2 was added to p67 phox (50 nM) in a total volume of 200 μl, and incubated for 30 min at room temperature. A mixture of solubilized macrophage membrane (5 nM cytochrome b 558 heme), p47 phox (50 nM), and Rac1 GMPPNP (nonprenylated) (50 nm), were added. Lithium dodecyl sulfate (LiDS) was added at 130 μM and incubated for 90 sec at room temperature. NADPH was then added (238 μM) and superoxide production measured. In this system, a turnover of 58.88 mol superoxide/sec/mol cytochrome b558 heme was measured. The results were calculated by taking superoxide production in the absence of Phox-I2 as 100% and values obtained with Phox-I2 were expressed as % inhibition. The mean data represent those from six separate experiments.

Compound	effect on glucose oxidase-produced ROS [1]	competition with Rac1V12 for p67^phox [2]	Rac1-GMPPNP induced superoxide burst (reconstituted NOX2)
COc1ccc2c(c1)C1C=C(c3ccccc3)NN1C(c1cccc([N+](=O)[O-])c1)O2 (stereo not drawn) [Phox-I1]	did not affect	disruption of p67^phox binding to Rac1V12	
O=[N+]([O-])c1cccc(C2Nc3ccc([N+](=O)[O-])cc3C3C=CCC32)c1 (stereo not drawn) [Phox-I2]			dose-dependent inhibition; also recorded: dose-dependently inhibit
